In ChEMBL document CHEMBL5729129, “Apoptosis signal-regulating kinase 1 (ASK 1) inhibitor compounds” (2022):

Legend:
[1] = target: T1, Mitogen-activated protein kinase kinase kinase 5 (Homo sapiens, UniProt Q99683); assay: ADP-Glo Assay: Table 3: The ability of test compounds to inhibit ASK1 kinase activity was determined using the luminescent ADP-Glo™ Kinase Assay and Myelin Basic Protein (MBP) as a substrate (Promega Corporation, Madison, Wis.). During the kinase reaction, ASK1 utilizes ATP and generates ADP. The remaining ATP is then depleted by addition of the ADP-Glo™ reagent which also terminates the reaction. Subsequent addition of the Kinase Detection Reagent converts the ADP that was produced during the kinase reaction to ATP, and this newly synthesized ATP is converted to light using the luciferase/luciferin reactions. The assay was performed according to the manufacturer's instructions. Briefly, purified, recombinant ASK1 (amino acids 649-946) (10-20 ng/well) was added to a 384-well, F bottom, small volume, HIbase, white plate (Greiner Bio-One, Monroe, N.C. #784075) containing 1-2 μL 5× test compound or vehicle control (diluted 1:20 from a 100% DMSO stock solution into 1× Reaction Buffer A). The enzyme was allowed to pre-incubate with test compound from 15-120 min at 30° C. before the addition of the ATP/substrate mix (final concentrations of 50 μM ATP+250 ng MBP in 1× Reaction Buffer A). The mixture was then incubated at room temperature for 40 min before the addition of ADP-Glo™ reagent and a second 40 minute room temperature incubation. […]
T1 sequence (Q99683 whole entry): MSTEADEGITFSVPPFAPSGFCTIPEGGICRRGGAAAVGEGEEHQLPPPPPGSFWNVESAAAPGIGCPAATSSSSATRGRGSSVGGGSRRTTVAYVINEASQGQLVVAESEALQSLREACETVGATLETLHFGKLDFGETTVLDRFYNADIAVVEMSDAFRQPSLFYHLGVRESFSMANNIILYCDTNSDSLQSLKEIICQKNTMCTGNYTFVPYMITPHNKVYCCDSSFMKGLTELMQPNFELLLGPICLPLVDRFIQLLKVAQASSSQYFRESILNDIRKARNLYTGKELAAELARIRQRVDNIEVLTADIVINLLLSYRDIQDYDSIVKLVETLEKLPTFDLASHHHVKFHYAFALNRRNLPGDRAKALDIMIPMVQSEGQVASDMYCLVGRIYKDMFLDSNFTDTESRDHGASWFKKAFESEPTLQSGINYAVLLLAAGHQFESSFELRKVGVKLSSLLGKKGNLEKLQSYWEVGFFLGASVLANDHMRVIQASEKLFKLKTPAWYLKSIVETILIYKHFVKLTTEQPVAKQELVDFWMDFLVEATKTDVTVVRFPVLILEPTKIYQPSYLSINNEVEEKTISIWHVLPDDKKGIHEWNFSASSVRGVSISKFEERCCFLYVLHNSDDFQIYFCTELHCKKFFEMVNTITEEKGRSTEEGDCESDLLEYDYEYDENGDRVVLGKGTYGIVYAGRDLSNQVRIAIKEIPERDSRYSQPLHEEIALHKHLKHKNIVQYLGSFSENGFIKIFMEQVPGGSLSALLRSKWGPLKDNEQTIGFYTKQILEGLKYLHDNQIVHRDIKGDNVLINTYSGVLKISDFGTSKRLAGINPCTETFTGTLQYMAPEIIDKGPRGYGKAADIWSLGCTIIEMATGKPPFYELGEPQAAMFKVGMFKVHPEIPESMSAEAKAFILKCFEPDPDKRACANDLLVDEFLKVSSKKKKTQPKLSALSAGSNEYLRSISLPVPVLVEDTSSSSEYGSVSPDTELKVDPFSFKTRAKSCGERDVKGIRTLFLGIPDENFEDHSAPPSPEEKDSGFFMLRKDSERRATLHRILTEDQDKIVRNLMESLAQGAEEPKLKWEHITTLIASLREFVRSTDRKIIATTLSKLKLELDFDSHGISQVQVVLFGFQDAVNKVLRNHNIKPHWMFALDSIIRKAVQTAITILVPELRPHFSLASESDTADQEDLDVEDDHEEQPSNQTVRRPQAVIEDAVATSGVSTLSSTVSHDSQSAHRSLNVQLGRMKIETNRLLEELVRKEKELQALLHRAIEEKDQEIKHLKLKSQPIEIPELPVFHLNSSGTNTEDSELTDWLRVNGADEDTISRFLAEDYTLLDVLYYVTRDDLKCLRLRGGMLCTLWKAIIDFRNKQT

[2] = target: T2, Lysyl oxidase homolog 2 (Homo sapiens, UniProt Q9Y4K0); assay: Amine Oxidase Activity Assay: Table 4: LOXL2 amine oxidase activity was evaluated by measuring Amplex Red fluorescence using 10-20× concentrated conditioned media from CHO cells stably expressing human LOXL2. To assay for amine oxidase activity, 10 μL of the concentrated conditioned media was incubated with 2 μL of test compound in DMSO and 73 μL Assay Buffer (50 mM Borate Buffer, pH8) for 2 h at 37° C. After the 2 h incubation, 5 μL of 10 mM 1,5-Diaminopentane (DAP) diluted in Assay Buffer and 10 μL of Amplex Red Mix (8.5 μL Assay Buffer+0.5 μL of 10 mM Amplex Red+1 μL of 500 U/ml Horseradish Peroxidase) were added and the plate mixed and immediately placed on the FlexStation for fluorescence measurements. Fluorescence was read in kinetic mode every 2 min for 0.5-1 hour at excitation=544 and emission=590. The amine oxidase activity was calculated from the slope of the linear portion of the curve. Wells containing vehicle (DMSO) represented maximum activity and were set to 0% inhibition and wells containing 100 μM βAPN (3-aminopropionitrile) represented no activity and were set to 100% inhibition.
T2 sequence (Q9Y4K0 whole entry): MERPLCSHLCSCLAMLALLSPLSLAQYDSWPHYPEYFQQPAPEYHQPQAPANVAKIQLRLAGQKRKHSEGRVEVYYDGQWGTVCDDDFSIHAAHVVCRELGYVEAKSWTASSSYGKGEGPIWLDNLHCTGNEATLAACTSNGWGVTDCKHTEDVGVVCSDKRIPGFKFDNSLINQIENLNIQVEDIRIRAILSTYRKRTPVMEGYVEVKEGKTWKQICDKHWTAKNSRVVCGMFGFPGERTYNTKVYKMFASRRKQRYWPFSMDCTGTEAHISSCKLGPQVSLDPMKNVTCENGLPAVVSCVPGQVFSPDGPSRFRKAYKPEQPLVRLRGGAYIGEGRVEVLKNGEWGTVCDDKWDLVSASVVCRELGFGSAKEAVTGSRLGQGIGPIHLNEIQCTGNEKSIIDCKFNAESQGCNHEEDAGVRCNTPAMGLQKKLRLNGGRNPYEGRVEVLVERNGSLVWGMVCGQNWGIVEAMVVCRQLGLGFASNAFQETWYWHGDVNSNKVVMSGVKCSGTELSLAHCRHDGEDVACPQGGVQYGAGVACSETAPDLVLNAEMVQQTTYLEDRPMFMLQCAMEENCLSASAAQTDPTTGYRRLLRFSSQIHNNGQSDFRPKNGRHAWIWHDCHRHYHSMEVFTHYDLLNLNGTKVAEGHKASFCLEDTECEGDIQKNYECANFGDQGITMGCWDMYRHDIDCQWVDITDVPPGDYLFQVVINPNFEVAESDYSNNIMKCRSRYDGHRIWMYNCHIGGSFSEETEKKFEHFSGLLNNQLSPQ

In the case of NCc1cc(Oc2ccnc(C(=O)Nc3cccc(-c4nncn4C4CC4)c3)c2)nc(C(F)(F)F)c1, the IC50 [1] is reported as > 1000 nM and the IC50 [2] is reported as < 300 nM.
